# Test results: US20230381291A1, “TUMOR-ASSOCIATED PEPTIDES AND USES THEREOF” (HUMANITAS MIRASOLE S.P.A., priority 2020, published 2023)
# Where a SMILES comes first, the peptide text is derived from it. The star is where a group is joined. Cbz = O=C(OCc1ccccc1)*
# Key:
# Type in all cases: cell-based, human
# [1] = system: Salmonella-infected 624-38 melanoma cells; experiment: IFN-gamma release by CTL-Vax on Thp1 loaded with conditioned supernatant; details: supernatant of inhibitor-treated Salmonella-infected 624-38 loaded on Thp1, ratio 1:1, 72 hours
# Method: (§1) In order to elucidate the Salmonella mechanism of action, the present inventors employed several inhibitors in their in vitro experiments, including: Heptanol (Sigma, 1 mM), hemichannel blocker; proteasome inhibitors: MG132 (Sigma, 20 μM) and Epoxomycin (Sigma, 500 nM); UPR-inhibitor 4μ8c (10 μM).
# (§2) Human acute monocytic leukemia Thp1 cell line was loaded either with antigens at different concentration (20 uM-1.25 uM) or with conditioned medium and used to stimulate CTL-Vax (ratio 1:1). Cells supernatant was collected after 72 hours and IFN-gamma production was measured by ELISA (R&D). IFN-gamma released by CTLs co-cultured with unloaded Thp1 (spontaneous IFN-gamma release) was subtracted from IFN measured upon Ag-stimulation. Specificity of the activation was further assessed using an HLA-I pan blocker as control (10 ug/ml, Clone W6/32).
# [2] = system: Salmonella-infected 624-38 melanoma cells; experiment: HLA-A*02:01-peptide binding assay on T2 cells (peptide release into supernatant); details: 624-38 cells treated with inhibitor; 4μ8c 10 μM, MG132 20 μM, Epoxomycin 500 nM
# Method: as §1
# Single bacterial colonies were grown overnight and restarted the next day to reach an absorbance at 600 nm of 0.6 corresponding to 0.6×10^9 colony-forming units (CFUs)/ml. Murine and human melanoma cells were incubated with bacteria for 90 minutes, at a cell-to-bacteria ratio of 1:50, in the appropriate medium added with L-Glutamine without antibiotics. Cells were washed with medium and incubated in medium supplemented with gentamicin ([…]) for 18 hours to kill extracellular bacteria. At the end of the incubation cells were harvested and then lysed for protein analysis while supernatant was collected and filtered through 0.22 μm filter eliminate potentially still alive bacteria.
# To assess peptides enrichment in the supernatant from tumor cell cultures following Salmonella treatment, T2 cells were incubated overnight at 37° C. at 2×10^5 cells/well in serum-free RPMI medium either with 100 μL of supernatant or with Mart-126-35 peptide (1 μM and 10 μM) as a positive control. […]
# CTL-Vax = experiment: IFN-gamma assay for peptide recognition by CTLs (peptide-loaded Thp1, ELISA); details: synthesized peptides loaded on Thp1 at 20 μM-1.25 μM, ratio 1:1, 72 hours
# Method: as §2
Compound,CTL-Vax activation upon supernatant stimulation (IFN-gamma release) [1],peptide release prompted by Salmonella infection (HLA-A*02:01 MFI on T2 cells) [2],IFN-gamma production by CTL-VAX (CTL-Vax)
Cc1cc(=O)oc2c(C=O)c(O)ccc12 [4μ8c],lower activation,significantly impaired peptide release,–
CC(C)C[C@@H](C=O)NC(=O)[C@H](CC(C)C)NC(=O)[C@H](CC(C)C)NC(=O)OCc1ccccc1 [MG132] (Cbz-Leu-Leu-Leu-aldehyde),affected,affected,–
TMA747-44: candidate peptide from melanoma secretome that did not induce IFN-gamma production by CTL-VAX (AAGKGPLATGGIKKSGKK),–,–,all except TMA747-44 (SEQ ID NO. 5) were able to induce IFN-gamma production
